Results: ChEMBL document CHEMBL1201862, “PubChem BioAssay data set” (2004)
Calls of active or inactive are those of the source.

Experiments:
[1] = A Cell Based Secondary Assay To Explore Cytotoxicity of Compounds that Sensitize Mycobacterium Tuberculosis to Beta-Lactam Antibiotics.; format: functional
[2] = molecular target: Neurotensin receptor type 1 (Homo sapiens, UniProt P30989); format: functional;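 further: Image-based confirmatory dose-response assay measuring agonist activity at NTR1; NTR1-expressing U2OS osteosarcoma cells imaged for beta-arrestin GFP spot formation; agonist potency where compounds increase beta-arrestin recruitment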
[3] = molecular target: T1, Corticotropin-releasing factor receptor 2/Corticotropin-releasing factor-binding protein (Homo sapiens, UniProt P24387+Q13324); assay: activators of CRF receptor 2 with binding protein – uHTS hits, confirmation (AID 602473); format: functional; details: read-out: EC50_Mean
T1 sequence (Q13324 whole entry): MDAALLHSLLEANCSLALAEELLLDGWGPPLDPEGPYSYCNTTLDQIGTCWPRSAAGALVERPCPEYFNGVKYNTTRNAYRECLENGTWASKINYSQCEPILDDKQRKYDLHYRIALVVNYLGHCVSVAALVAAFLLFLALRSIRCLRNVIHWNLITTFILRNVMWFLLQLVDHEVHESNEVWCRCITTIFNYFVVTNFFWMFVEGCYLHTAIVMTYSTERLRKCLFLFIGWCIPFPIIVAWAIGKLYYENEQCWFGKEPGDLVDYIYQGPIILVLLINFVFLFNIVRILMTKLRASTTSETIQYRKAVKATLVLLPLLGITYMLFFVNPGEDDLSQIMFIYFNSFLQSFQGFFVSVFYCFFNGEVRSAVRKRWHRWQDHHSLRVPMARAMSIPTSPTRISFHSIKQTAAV
T1 sequence (P24387 whole entry): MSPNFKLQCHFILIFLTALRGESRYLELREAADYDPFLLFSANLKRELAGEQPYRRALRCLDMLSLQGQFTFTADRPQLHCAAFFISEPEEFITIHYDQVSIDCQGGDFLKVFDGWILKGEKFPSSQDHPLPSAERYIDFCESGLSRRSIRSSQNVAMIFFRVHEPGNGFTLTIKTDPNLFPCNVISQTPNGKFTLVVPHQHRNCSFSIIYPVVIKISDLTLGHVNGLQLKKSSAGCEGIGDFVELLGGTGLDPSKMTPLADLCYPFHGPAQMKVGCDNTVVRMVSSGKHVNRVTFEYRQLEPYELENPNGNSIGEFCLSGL

Hexokinase = Hexokinase (Trypanosoma brucei, UniProt Q38C41); assay: Confirmation assay for inhibitors of Trypanosoma brucei hexokinase 1-Analogue-first series. [Related pubchem assays (depositor defined):AID1430, AID1632, AID2516, AID2560, AID2579, AID2600, AID449725, AID492951]; format: functional
[4] = fluconazole-exposed Candida albicans growth modulators – fluorescence, retest, confirmation (AID 2467); format: functional, cell-based
[5] = molecular target: Eukaryotic translation initiation factor 4H (Homo sapiens, UniProt Q15056); assay: eIF4H binding inhibition – biochemical, uHTS, fluorescence polarization, translation initiation inhibitor project, primary screen (AID 2012)
[6] = NIH-3T3 fibroblast cytotoxicity, dose response, cytotoxicity control, cell-based, fluorescence, Alamar Blue, secondary assay (AID 2327); format: functional;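 further: NIH-3T3 mouse fibroblasts cultured with fluconazole at 8 µg/mL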
[7] = molecular target: T2, Long-chain-fatty-acid--AMP ligase FadD28 (Mycobacterium tuberculosis, UniProt P9WQ59); assay: Fluorescence polarization aasay to screen for inhibitors that compete for the binding of FadD28 to a bisubstrate Measured in Biochemical System Using Plate Reader - 2147-01_Inhibitor_Dose_CherryPick_Activity.; format: functional, Mycobacterium tuberculosis H37Rv
T2 sequence (P9WQ59 whole entry): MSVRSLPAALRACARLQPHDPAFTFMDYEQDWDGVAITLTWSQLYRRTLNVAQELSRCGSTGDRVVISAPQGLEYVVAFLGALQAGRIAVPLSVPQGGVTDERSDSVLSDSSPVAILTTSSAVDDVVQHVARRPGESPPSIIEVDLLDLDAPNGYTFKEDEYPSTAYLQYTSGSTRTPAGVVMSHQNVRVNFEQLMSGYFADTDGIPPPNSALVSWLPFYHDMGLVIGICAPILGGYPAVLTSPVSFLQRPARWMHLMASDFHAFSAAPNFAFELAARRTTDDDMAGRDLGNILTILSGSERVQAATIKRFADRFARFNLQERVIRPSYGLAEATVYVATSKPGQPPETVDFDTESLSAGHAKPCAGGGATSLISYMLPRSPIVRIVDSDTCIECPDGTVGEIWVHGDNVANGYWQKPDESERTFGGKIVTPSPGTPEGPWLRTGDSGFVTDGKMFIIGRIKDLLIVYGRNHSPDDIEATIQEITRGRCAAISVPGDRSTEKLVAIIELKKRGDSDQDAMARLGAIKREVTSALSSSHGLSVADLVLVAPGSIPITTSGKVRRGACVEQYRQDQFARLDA

[8] = molecular target: Polyadenylate-binding protein 1 (Homo sapiens, UniProt P11940); assay: blockers of PABP interaction with poly(A) – biochemical, fluorescence polarization, […] (AID 2014)
[9] = molecular target: T3, Voltage-gated N-type calcium channel alpha-1B subunit/Amyloid beta A4 precursor protein-binding family A member 1 (Homo sapiens, UniProt Q00975+Q02410); format: protein assay
[10] = molecular target: T3, Voltage-gated N-type calcium channel alpha-1B subunit/Amyloid beta A4 precursor protein-binding family A member 1; format: protein assay; remark: listed apart in the source

Hexokinase, sequence (Q38C41 whole entry): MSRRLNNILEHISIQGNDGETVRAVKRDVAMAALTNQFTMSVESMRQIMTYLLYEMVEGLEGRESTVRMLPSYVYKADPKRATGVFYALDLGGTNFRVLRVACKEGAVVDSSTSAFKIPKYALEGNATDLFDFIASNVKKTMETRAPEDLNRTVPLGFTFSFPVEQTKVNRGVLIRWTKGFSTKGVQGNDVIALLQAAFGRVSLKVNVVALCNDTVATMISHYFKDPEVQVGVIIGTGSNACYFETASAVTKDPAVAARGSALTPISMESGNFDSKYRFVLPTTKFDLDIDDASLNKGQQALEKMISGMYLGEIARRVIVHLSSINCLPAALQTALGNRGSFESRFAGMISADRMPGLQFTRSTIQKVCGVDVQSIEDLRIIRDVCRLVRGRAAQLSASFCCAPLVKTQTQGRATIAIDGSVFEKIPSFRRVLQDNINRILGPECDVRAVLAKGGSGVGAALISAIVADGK
T3 sequence (Q00975 whole entry): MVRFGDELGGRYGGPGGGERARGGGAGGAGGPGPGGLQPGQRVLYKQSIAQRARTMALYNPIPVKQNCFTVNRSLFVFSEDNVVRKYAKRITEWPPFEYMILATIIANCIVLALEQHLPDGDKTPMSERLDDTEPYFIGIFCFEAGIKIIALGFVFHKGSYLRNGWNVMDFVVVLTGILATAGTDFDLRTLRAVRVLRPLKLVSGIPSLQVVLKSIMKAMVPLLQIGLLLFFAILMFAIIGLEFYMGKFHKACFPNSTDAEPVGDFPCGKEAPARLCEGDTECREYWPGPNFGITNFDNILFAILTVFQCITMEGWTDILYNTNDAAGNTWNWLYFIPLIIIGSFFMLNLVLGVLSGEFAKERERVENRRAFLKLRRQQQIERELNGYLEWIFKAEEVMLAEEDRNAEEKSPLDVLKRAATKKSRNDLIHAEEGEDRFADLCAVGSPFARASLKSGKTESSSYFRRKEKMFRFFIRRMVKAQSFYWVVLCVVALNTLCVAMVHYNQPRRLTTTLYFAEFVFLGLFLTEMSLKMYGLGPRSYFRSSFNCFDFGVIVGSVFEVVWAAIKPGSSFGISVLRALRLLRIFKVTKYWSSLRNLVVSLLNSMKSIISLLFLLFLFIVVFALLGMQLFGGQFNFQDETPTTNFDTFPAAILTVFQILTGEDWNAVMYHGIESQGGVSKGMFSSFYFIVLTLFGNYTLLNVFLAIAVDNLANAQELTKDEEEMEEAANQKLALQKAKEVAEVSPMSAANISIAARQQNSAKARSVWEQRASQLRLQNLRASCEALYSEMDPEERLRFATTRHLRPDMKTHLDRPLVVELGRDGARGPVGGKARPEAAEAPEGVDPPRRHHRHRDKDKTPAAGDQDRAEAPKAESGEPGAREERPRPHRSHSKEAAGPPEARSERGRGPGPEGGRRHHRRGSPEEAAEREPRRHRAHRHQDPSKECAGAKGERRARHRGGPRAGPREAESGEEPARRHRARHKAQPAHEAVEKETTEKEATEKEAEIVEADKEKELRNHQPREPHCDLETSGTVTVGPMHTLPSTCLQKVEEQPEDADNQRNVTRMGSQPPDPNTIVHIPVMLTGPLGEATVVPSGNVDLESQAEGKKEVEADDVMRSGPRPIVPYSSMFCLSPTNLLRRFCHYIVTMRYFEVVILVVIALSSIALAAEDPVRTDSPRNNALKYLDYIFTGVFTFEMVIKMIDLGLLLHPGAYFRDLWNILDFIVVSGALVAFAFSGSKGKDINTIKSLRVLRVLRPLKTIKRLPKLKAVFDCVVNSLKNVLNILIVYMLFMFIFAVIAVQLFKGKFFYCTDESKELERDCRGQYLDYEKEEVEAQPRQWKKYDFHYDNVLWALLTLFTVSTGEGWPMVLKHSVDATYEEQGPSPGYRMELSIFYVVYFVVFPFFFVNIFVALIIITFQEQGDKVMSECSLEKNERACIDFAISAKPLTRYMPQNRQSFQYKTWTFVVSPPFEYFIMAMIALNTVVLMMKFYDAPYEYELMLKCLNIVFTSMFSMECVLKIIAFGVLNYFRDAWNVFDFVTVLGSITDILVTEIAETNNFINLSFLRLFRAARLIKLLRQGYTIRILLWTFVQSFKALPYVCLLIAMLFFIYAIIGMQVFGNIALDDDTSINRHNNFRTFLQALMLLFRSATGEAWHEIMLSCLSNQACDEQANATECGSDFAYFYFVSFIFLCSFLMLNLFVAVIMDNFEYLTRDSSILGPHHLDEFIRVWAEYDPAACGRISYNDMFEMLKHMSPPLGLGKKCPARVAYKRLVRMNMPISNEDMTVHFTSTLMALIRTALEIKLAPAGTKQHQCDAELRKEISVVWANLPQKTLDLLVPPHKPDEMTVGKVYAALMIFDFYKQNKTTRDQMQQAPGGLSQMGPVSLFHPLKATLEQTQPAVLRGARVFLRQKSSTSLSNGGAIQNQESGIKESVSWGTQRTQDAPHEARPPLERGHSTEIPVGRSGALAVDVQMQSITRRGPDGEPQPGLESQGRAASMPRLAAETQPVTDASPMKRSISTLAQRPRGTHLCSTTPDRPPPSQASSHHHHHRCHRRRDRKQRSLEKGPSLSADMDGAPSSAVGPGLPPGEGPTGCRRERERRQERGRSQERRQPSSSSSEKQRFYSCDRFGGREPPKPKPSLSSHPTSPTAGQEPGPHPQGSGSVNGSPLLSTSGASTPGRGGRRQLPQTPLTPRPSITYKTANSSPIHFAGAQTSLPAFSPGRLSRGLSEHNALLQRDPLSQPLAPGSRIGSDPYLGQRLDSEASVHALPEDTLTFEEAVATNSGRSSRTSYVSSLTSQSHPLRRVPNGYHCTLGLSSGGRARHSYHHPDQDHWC
T3 sequence (Q02410 whole entry): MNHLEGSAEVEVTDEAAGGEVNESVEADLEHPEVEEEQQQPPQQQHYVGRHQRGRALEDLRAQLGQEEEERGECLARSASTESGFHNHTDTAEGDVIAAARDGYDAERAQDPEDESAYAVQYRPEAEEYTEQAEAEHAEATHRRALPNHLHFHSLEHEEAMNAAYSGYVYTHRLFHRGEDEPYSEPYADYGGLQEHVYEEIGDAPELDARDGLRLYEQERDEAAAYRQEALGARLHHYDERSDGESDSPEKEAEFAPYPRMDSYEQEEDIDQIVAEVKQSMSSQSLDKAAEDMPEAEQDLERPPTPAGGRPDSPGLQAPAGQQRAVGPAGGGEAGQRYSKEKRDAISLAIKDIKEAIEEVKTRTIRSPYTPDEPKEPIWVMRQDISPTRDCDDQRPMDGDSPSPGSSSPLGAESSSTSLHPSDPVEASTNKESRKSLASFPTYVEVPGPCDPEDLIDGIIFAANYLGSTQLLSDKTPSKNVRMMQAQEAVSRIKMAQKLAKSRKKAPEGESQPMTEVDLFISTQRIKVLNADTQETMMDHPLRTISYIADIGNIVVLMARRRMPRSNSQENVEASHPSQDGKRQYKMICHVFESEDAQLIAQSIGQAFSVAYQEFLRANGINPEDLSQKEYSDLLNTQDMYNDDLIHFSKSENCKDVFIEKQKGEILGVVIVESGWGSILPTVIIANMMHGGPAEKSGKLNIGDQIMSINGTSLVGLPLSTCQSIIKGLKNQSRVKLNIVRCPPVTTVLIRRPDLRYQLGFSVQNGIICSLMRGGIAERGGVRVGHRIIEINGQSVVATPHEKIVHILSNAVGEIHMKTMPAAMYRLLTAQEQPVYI
Neurotensin receptor type 1, sequence (P30989 whole entry): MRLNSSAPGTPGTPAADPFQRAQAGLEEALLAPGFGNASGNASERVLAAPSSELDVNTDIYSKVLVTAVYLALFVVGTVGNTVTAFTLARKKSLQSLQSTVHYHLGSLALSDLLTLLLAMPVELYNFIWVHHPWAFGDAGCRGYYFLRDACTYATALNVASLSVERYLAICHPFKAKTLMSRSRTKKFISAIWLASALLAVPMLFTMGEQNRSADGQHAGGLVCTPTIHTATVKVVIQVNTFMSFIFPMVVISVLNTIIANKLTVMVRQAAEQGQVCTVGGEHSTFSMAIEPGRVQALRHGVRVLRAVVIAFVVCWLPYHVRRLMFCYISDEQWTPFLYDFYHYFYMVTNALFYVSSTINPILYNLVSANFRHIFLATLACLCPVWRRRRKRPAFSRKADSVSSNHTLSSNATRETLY
Polyadenylate-binding protein 1, sequence (P11940 whole entry): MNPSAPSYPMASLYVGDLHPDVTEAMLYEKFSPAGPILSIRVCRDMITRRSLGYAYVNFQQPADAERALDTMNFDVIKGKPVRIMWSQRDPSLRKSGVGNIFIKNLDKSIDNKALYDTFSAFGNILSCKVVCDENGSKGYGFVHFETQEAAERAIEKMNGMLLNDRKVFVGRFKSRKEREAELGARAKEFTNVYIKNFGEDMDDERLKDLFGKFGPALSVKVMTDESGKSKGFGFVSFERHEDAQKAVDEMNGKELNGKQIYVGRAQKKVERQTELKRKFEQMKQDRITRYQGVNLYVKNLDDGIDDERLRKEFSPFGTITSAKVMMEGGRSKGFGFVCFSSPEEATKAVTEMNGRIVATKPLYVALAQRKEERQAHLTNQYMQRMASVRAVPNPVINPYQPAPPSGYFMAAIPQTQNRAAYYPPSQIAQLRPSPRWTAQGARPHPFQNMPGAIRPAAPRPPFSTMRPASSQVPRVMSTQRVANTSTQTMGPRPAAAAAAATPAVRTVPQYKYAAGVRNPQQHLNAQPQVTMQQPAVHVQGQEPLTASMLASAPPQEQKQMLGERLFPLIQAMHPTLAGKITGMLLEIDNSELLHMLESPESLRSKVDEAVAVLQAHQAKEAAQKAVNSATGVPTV

With `CCOC(=O)c1sc(Nc2nc3c(OC)cccc3s2)cc1C` as the compound, how does the CC50 [1] read?
Its CC50 is > 40 µM (active).

For `CC1(C)CC(=O)C(=Cc2cn(-c3ccccc3)nc2-c2ccc(Cl)cc2)C(=O)C1`, which EC50 [2] is on record?
The EC50 was 35.3 µM (inactive).

And the EC50 [3]?
Its EC50 is > 53 µM (inactive).

Which IC50 (Hexokinase) does the source give for `O=C(O)c1ccccc1NC(=O)c1ccccc1C(=O)O` here?
The IC50 was > 25 µM (inactive).

For `COc1ccc(C(=O)NC(CC(=O)O)c2ccccc2)cc1` (stereo not drawn), which IC50 (Hexokinase) is on record?
The IC50 was > 25 µM (inactive).

For `Cc1ccc(C(C)C)c(OCc2ccc(C(=O)N/N=C/c3ccc(C(=O)O)cc3)cc2)c1`, which CC50 [1] is on record?
The CC50 was > 40 µM (active).

Which EC50 [4] does the source give for `NC(=S)n1[nH]c(-c2ccc([N+](=O)[O-])cc2)c(/N=N/c2cccc([N+](=O)[O-])c2)c1=O` here?
Its EC50 is 11.6 µM (active).

And the IC50 [5]?
Its IC50 is 2.66 µM (active).

What about the EC50 [6] of the same compound?
The EC50 was > 150 µM (inactive).

And the AC50 [7]?
Its AC50 is 15.5 µM (active).

What about the IC50 [8] of the same compound?
Its IC50 is 42.5 µM (active).

What about the IC50 [9] of the same compound?
Its IC50 is 4 µM (active).

What about the IC50 [10] of the same compound?
The IC50 was > 50 µM (inactive).
